# Results taken from article PMC4768221, “Subcellular localization of anthracyclines in cultured rat cardiomyoblasts as possible predictors of cardiotoxicity” (Investigational New Drugs, 2015).
# Where two headings read alike, the source gives them in different places.
# What was measured:
# [1] = Cytotoxicity assay (MTT, inhibition of cell proliferation); format: cell-based, rat; conditions: rat
# Experimental: (§1) The cytotoxic activity of the drugs was assayed by measuring their inhibitory effects on H9c2(2-1) cell proliferation. To measure the cytotoxicity of doxorubicin, daunorubicin, and their analogs, the tetrazolium dye method was used. Cells were seeded at 1 × 10^4 cells/well in 48-well plates. After 24 h, the cells were incubated with different concentrations of anthracyclines for 72 h in triplicate in a final volume of 1 ml. Then, 50 μl of a sterile aqueous solution of 3-[4,5-dimethylthiazol-2-yl]-2,5-diphenyl-tetrazolium bromide (5 mg/ml) (Sigma-Aldrich) was added to each well for an additional 3 h. The blue formazan precipitate was dissolved in DMSO (Sigma-Aldrich), and the absorbance of solutions was measured at 540 nm. For each experiment, determinations were performed in three replicates. The IC50 values (the anthracycline concentration effective at inhibiting cell growth after exposure to the drug for 72 h) were read from survival curves, which were fitted to an exponential equation using Xact v. 7.2, a statistical software tool by SciLab (Germany).
# [2] = design: method as in PMID 16158943; conditions: animal models, compared to DOX and DRB; cited from earlier work
# [3] = system: H9c2(2-1) cells; test: Cellular uptake (fluorimetric, ethanol/HCl extraction); format: cell-based, rat; conditions: 10 μM, 1 h; for Accumulation relative to parent drug (times higher): vs DOX or DRB
# Experimental: Anthracycline uptake was estimated by fluorimetric measurements after the drugs were extracted with an ethanol/HCl mixture as described by Riganti et al.. H9c2(2-1) cells (2 × 10^5) were seeded onto 40 × 11 mm tissue culture dishes for 24 h. Then, the cells were treated in growth medium with 10 μM anthracycline solution at 37 °C for 1 h. After this time, the cells were gently scraped and suspended in 5 ml of ice-cold PBS. The cell suspension aliquots were centrifuged at 1500 rpm for 5 min and then washed twice in ice-cold PBS. Next, cell pellets were collected and resuspended in 2 ml of a 1:1 mixture of ethanol:0.3 M HCl, and the fluorescence intensities of these suspensions were measured at 20 °C using a Perkin-Elmer LS 55 spectrofluorimeter. The optimal excitation and emission wavelengths were 485 and 590 nm, respectively. To estimate the drug concentrations, calibration curves in the concentration range of 0.01–0.5 μM were prepared. Because the fluorescence was quenched slightly in the presence of cells, each point of the calibration curves was measured in the presence of 2 × 10^5 cells suspended in a mixture of ethanol/HCl.
# [4] = system: double-stranded calf thymus DNA; test: Ethidium bromide displacement assay (affinity to DNA); format: binding; conditions: for Kapp (apparent DNA binding constant): ethidium bromide displacement, mean of three ± S.D.; for Kapp relative to parent drug (times lower): vs DOX or DRB
# Experimental: The binding of the anthracyclines to double-stranded calf thymus DNA was tested by the ethidium bromide displacement assay. This method is based on the competition between the tested compound and ethidium bromide for DNA intercalation sites. The fluorescence intensity of ethidium bromide increases upon DNA binding. Addition of a compound displacing intercalated ethidium bromide leads to quenching of the fluorescence of the DNA/ethidium bromide complex. The percentage of initial fluorescence was plotted against the concentration of the added compound, and the IC50 value was read. The IC50 value is defined as the concentration of added compound required to reduce the fluorescence of the DNA/ethidium bromide complex to 50 %. IC50 values were then used to calculate the apparent binding constants of the anthracyclines to DNA.
# [5] = system: H9c2(2-1) cells; test: Cell cycle analysis by flow cytometry; format: cell-based, rat; conditions: for Cells in G2/M phase / Cells in S phase / Cells in G0/G1 phase: 24 h treatment at equitoxic concentration (IC50); for Cells in G2/M phase: untreated control 8.7 %; for Cells in S phase: untreated control 11 %; for Cells in G0/G1 phase: untreated control 80.1 %; for Cell cycle arrest pattern: 24 h treatment at IC50, data not shown
# Experimental: The cell cycle was analyzed by flow cytometry using a Becton-Dickinson FACSCanto II flow cytometer. H9c2(2-1) cells were seeded at 1 × 10^4 cells/cm^2 in 10 cm^2 culture flasks. After the cells were allowed to grow for 24 h, the medium was replaced and the cells were treated with an equitoxic anthracycline concentration corresponding to IC50. Treatment was performed for 24 h, and then the cells were washed in PBS and trypsinized. After the cells were washed in PBS again, they were fixed in 70 % ethanol and incubated for 1 h on ice. Fixed cells were washed twice in PBS, resuspended in commercially available propidium iodide staining solution and then subjected to flow cytometric assay. The percentages of H9c2(2-1) cells present in G1, S, and G2 phases of the cell cycle after drug treatment were analyzed using FACSDiva 6.1 software.
# [6] = system: H9c2(2-1) rat cardiomyoblasts; test: Cytotoxicity assay (MTT, inhibition of cell proliferation); format: cell-based; conditions: 72 h
# Experimental: as §1
# [7] = H9c2(2-1) rat cardiomyoblast cells, H9c2(2-1) cells, 72 h exposure, MTT, mean of six experiments ± S.D., read-out: Cytotoxicity IC50
# [8] = H9c2(2-1), parent DOX or DRB vs analog
# [9] = H9c2(2-1) cells, 72 h exposure, MTT, mean of six experiments ± S.D., read-out: Cytotoxicity IC50
Cellular accumulation higher than DOXM [3],Compound,"IC50 at 72 h [1, 7] [nM]",Cardiotoxicity in vivo [2],Kapp (apparent DNA binding constant) [4],Cells in G2/M phase [5] [%],Cells in S phase [5] [%],Cells in G0/G1 phase [5] [%],"Cytotoxic activity of the parent compound relative to this analog (times higher) [6, 8]","IC50 at 72 h [1, 9] [nM]",Kapp relative to parent drug (times lower) [4],Cytotoxic activity of the parent compound relative to this analog (times higher) ([6]; rat) [times],IC50 at 72 h [1] [nM],Cell cycle arrest pattern [5],Accumulation relative to DOXM (times higher) [3] [times],Accumulation relative to parent drug (times higher) [3],Accumulation relative to other tested compounds (times higher) ([3]; other than parent DRB)
approximately 30%,"COc1cccc2c1C(=O)c1c(O)c3c(c(O)c1C2=O)C[C@@](O)(C(=O)CO)C[C@@H]3O[C@H]1C[C@H](N)[C@H](O)[C@H](C)O1 [DOX, doxorubicin, reference compound]",35 ± 4,most cardiotoxic,18.1 ± 0.41 × 10^5 [M^-1],40.6,9.0,50.4,,,,,,,,,
,COc1cccc2c1C(=O)c1c(O)c3c(c(O)c1C2=O)C[C@@](O)(C(=O)CO)C[C@@H]3O[C@H]1C[C@H](N=CN2CCOCC2)[C@H](O)[C@H](C)O1 [DOXM],,lower cardiotoxicity,0.90 ± 0.12 × 10^5 [M^-1],13.0,33.5,53.5,approximately 4 times,138 ± 18,approximately 20 times,,,,,,
,COc1cccc2c1C(=O)c1c(O)c3c(c(O)c1C2=O)C[C@@](O)(C(C)=O)C[C@@H]3O[C@H]1C[C@H](N=CN2CCOCC2)[C@H](O)[C@H](C)O1 [DRBM],,lower cardiotoxicity,0.64 ± 0.03 × 10^5 [M^-1],,,,,,approximately 20 times,8,626 ± 18,S phase arrest,,,
,"COc1cccc2c1C(=O)c1c(O)c3c(c(O)c1C2=O)C[C@@](O)(C(C)=O)C[C@@H]3O[C@H]1C[C@H](N)[C@H](O)[C@H](C)O1 [DRB, daunorubicin, reference compound]",76 ± 7,most cardiotoxic,11.7 ± 0.22 × 10^5 [M^-1],,,,,,,,,G2/M arrest,,,
,COc1cccc2c1C(=O)c1c(O)c3c(c(O)c1C2=O)C[C@@](O)(C(=O)CO)C[C@@H]3O[C@H]1C[C@H](N=CN2CCCCCC2)[C@H](O)[C@H](C)O1 [DOXH],,lower cardiotoxicity,7.30 ± 0.14 × 10^5 [M^-1],13.5,36.4,50.1,~2.5 times,87 ± 7,2.5–2.8 times,,,,~2,1.5 times,
,COc1cccc2c1C(=O)c1c(O)c3c(c(O)c1C2=O)C[C@@](O)(C(C)=O)C[C@@H]3O[C@H]1C[C@H](N=CN2CCCCCC2)[C@H](O)[C@H](C)O1 [DRBH],,lower cardiotoxicity,4.1 ± 0.08 × 10^5 [M^-1],,,,2 times,172 ± 14,2.5–2.8 times,,,S phase arrest,,more than 1.5 times,5–7 times
